Where only a bound is given, the exact number is not on record here.

In turn, `CCc1ccc(-c2ccc(C(=O)Nc3ccc4cc(CN5CCCC5)cnc4c3C)cc2)cc1` registered a melting point of 189 to 190 °C.

`Cn1c2ccc(Cl)cc2c(=O)n2nc(C#N)cc12` registered a melting point of 350 °C.

The molecule `CCCCCCC(C(=O)O)N1Cc2cc(-c3ccccc3-c3nn[nH]n3)ccc2N1` (stereo not drawn) had a melting point of 113 to 120 °C.

For the molecule `OC1(C#Cc2cc(Cl)ccc2Cl)CN2CCC1CC2` (stereo not drawn), the melting point lay in the range of 197 to 200 °C.

Consider `CC(C)(C)c1cc(NC(=O)Nc2ccc(Oc3cccc(NC(=O)OCc4ccccc4)c3)cc2)no1`, for which the melting point was in the range of 73 to 75 °C.

As for `Cc1cccc(C(=O)c2[nH]c3cc(Cl)ccc3c2NC(=O)N(C)C)c1`, the melting point is 198 to 200 °C.

`Cc1cc(N2CCC(CN3CCN(S(=O)(=O)c4ccc(Cl)cc4)CC3)CC2)nc(C)n1`: the melting point was 73 to 74 °C.

`CCCC[C@]1(CC)CS(=O)(=O)c2cc(OC)c(Br)cc2[C@@H](c2ccccc2)N1O`: the melting point lay in the range of 202 to 204 °C.

For `OCCOc1ccc(-c2nc(-c3ccc(OCCO)cc3O)nc(-c3ccc(OCCO)cc3O)n2)c(O)c1`, the melting point stood at 195 °C.

`CC(=O)CC(=O)C=Cc1c[nH]c2ccccc12` displayed a melting point of 155 to 158 °C.

Regarding `COc1cc2ccc(Br)cc2cc1C12CC3CC(CC(C3)C1)C2`, the melting point was in the range of 164 to 168 °C.

In turn, `COc1ccc(C(=O)CCC(=O)N[C@@H](C)C(=O)O)cc1F` gave a melting point of 126 to 128 °C.

`CC(=O)NCC1CC(c2ccc(-n3ccc(CO)c3)c(F)c2)=NO1` (single isomer, unassigned; (-)) registered a melting point of 162 to 164 °C.

In turn, `Cn1ccc(=O)c(OCc2ccccc2)c1C(O)c1ccccn1` (stereo not drawn) had a melting point of 202 to 204 °C.

Molecule `COC(=O)c1c(C)nc2cc(OC)c(OC)cc2c1-c1ccnc(Cl)c1` displayed a melting point of 145 to 147 °C.

On to `O=C(NC(=O)c1c(F)cccc1Cl)Nc1ccc(S(=O)(=O)C(F)(F)C(F)F)cc1F`, for which the melting point lay in the range of 176 to 177 °C.

`O=C(O)Cc1ccc(F)cc1Sc1ccc([N+](=O)[O-])cc1` registered a melting point of 160 to 164 °C.

With `NC(=O)c1ccc(CCN2CCN(Cc3ccccc3Cl)CC2)cc1`, the melting point fell in the range of 170 to 173 °C.

Consider `CCCCc1ccc(C(=O)NCc2c[nH]c(=S)n2[C@H]2CCc3c(F)cc(F)cc3C2)nc1`, for which the melting point lay in the range of 99 to 104 °C.

With `CCN(CC)CCNC(=O)c1cccc2c(=O)c3cc(I)ccc3[nH]c12`, the melting point lay in the range of 140 to 142 °C.

On to `CCOC(=O)c1cn2c3c(cc(CN4CCOCC4)cc3c1=O)OCC2`, for which the melting point lay within 216 to 218 °C.

In the case of `O=C(Nc1ccc(CO)cc1)C1=Cc2cc(-c3ccccc3)ccc2CC1`, the melting point was in the range of 207 to 210 °C.

On to `Cn1c2nc3ccccc3nc2c2cccc(CO)c21`, for which the melting point lay in the range of 237 to 238 °C.

Consider `O=C(c1ccccc1)C(OCc1ccc(Cl)cc1Cl)n1ccnc1` (stereo not drawn), for which the melting point is 109 to 111 °C.

`CCCCCCCCCCCCCCCCCCn1c(C)c(CC(=O)NN)c2cc(OC)ccc21` showed a melting point of 121 to 123 °C.

`Cc1coc2ccc(C#N)cc12`: the melting point stood at 73 °C.

Take `COc1ccc2c(c1)c1c(n2C)C(=O)NCCO1`: the melting point fell in the range of 184 to 186 °C.

As for `CS(=O)(=O)On1c(=O)c2cc3c(=O)n(OS(C)(=O)=O)c(=O)c3cc2c1=O`, the melting point is above 300 °C.

`O=C(Nc1cccc(-c2ccnc3c(C(=O)c4cccs4)cnn23)c1)OCCCN1CCOCC1` displayed a melting point of 198 to 199 °C.

The molecule `CC(C)NC(=O)c1cc(-n2c(=O)cc(C(F)(F)F)[nH]c2=O)c(F)cc1Cl` displayed a melting point of 234 to 239 °C.

The molecule `CC(O)(C=Cc1ccc(S(=O)(=O)c2ccccc2)cc1)C(F)(F)F` (stereo not drawn) yielded a melting point of 94 to 97 °C.

Turning to `CS(=O)(=O)c1ccc(-n2nc(C(F)(F)F)cc2-c2nc3ccc(F)cc3s2)cc1`, the melting point lay in the range of 194 to 196 °C.

For the molecule `Clc1ccc(COC(CNc2ccc(Cl)c(Cl)c2)Cn2ccnc2)c(Cl)c1` (stereo not drawn), the melting point lay within 116 to 117 °C.

For orientation: melting point means the temperature, or range, at which the solid turns liquid.
